These results are taken from ChEMBL document CHEMBL1914359, “Bendigoles D-F, bioactive sterols from the marine sponge-derived Actinomadura sp. SBMs009” (Bioorg Med Chem, 2011).

What all share (type): cell-based
The target of data set [1] is T1, Glucocorticoid receptor (Homo sapiens) (UniProt P04150).
T1 sequence (whole entry): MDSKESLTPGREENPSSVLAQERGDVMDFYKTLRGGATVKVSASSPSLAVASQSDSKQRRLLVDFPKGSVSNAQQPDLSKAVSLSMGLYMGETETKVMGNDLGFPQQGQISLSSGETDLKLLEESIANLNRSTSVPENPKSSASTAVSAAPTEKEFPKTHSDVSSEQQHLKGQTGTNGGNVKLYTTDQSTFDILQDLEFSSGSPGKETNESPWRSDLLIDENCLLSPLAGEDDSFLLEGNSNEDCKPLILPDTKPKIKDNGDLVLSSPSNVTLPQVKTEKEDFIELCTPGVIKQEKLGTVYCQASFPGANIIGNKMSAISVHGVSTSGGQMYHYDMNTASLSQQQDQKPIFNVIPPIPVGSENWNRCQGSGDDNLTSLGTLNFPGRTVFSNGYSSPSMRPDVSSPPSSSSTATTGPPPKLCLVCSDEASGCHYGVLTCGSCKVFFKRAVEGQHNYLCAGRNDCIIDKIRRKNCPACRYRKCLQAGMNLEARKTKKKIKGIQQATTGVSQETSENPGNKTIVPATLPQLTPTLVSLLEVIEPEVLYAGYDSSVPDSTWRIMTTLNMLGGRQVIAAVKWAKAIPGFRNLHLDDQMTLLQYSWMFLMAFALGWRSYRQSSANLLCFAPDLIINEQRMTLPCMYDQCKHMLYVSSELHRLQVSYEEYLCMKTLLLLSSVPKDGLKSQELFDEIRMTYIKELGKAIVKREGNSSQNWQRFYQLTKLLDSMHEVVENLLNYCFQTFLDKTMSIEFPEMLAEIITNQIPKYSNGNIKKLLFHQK
Nature of the data set: Inhibition of EGFP-tagged GR nuclear translocation in human U2OS cells at 2.5 uM after 1 hr using Hoechst staining by fluorescence microscopy relative to control.

Data set [2] has as its target T1, Glucocorticoid receptor (Homo sapiens). As to the kind of experiment: Inhibition of EGFP-tagged GR nuclear translocation in human HaCaT cells at 2.5 uM after 1 hr using Hoechst staining by fluorescence microscopy relative to control.
Data set [3] has the same target. Nature of the data set: Inhibition of EGFP-tagged GR nuclear translocation in human SH-SY5Y cells at 2.5 uM after 1 hr using Hoechst staining by fluorescence microscopy relative to control.
For data set [4] the target is unchanged. As to the kind of experiment: Inhibition of EGFP-tagged GR nuclear translocation in human HaCaT cells at 250 uM after 1 hr using Hoechst staining by fluorescence microscopy relative to control.
In another data set the test system is L929. As to the kind of experiment: Cytotoxicity against mouse L929 cells after 5 days by MTT assay. To be noted: for Activity: mouse, l929, 120 h.
The target in data set [5] is T1, Glucocorticoid receptor (Homo sapiens). As to the kind of experiment: Inhibition of EGFP-tagged GR nuclear translocation in human U2OS cells at 250 uM after 1 hr using Hoechst staining by fluorescence microscopy relative to control.
Data set [6] can be described thus: Inhibition of IL1-beta-induced GFP-tagged NFkappaB nuclear translocation in CHO cells pretreated for 4 hrs before IL1-beta challenge using Hoechst staining by fluorescence microscopy relative to control. To be noted: Cricetulus griseus.
Data set [7] addresses T1, Glucocorticoid receptor (Homo sapiens). Nature of the data set: Inhibition of EGFP-tagged GR nuclear translocation in human SH-SY5Y cells at 250 uM after 1 hr using Hoechst staining by fluorescence microscopy relative to control.

Activity calls are given as the source filed them. The rule behind the calls is not given here.

Broadly, the IC50 is the concentration at which inhibition is half-maximal. For `C[C@H](CCC(=O)O)[C@H]1CC[C@H]2[C@@H]3[C@H](O)CC4=CC(=O)C=C[C@]4(C)[C@H]3C[C@H](O)[C@]12C` (relative stereo), the inhibition entry in data set [1], in data set [2], in data set [3], in data set [4], in data set [5] and in data set [7] was “Active” throughout. Further, in the data set with L929, the Activity entry was “Non-toxic”. Also, the IC50 in data set [6] was found to be 71 µM.
Turning to `C[C@H](C(=O)O)[C@H]1CC[C@H]2[C@@H]3[C@H](O)CC4=CC(=O)C=C[C@]4(C)[C@H]3C[C@H](O)[C@]12C` (relative stereo), the inhibition entry in data set [1], in data set [2], in data set [3], in data set [4], in data set [5] and in data set [7] was “Active” in each case. 30 µM corresponded to half-maximal inhibition in the data set with L929 (Mus musculus, L929, 120 h) (IC50).
On to `CC(=O)[C@@H](C)[C@H]1CC[C@H]2[C@@H]3[C@H](O)CC4=CC(=O)C=C[C@]4(C)[C@H]3C[C@H](O)[C@]12C` (relative stereo), for which the inhibition entry in data set [1], in data set [2], in data set [3], in data set [4], in data set [5] and in data set [7] was “Active” throughout. The Activity result with L929 is on record as “Non-toxic”.
